Drawing on US4321386A, “Quaternary piperidinium halides” (Mead Johnson & Company, priority 1981, dated 1982), this text covers LD50, TD50 and ED50 for three compounds.

Data set [1] is described as follows: Oral toxicity testing in mice (ALD50, ATD50). The note with it: mouse, in vivo. As for the experimental part: ^(1) Various oral doses of from 5 mg/kg to 2000 mg/kg are given to 2
mice each; ALD50 is the approximate lethal dose for half the animals
ATD50 is the approximate lowest dose where signs of physiologic or […]

Data set [2] deals with Ventricular arrhythmia produced in mice by chloroform inhalation. Description: Chloroform induced arrhythmia test in the mouse. It counts as in vivo. As to conditions: inhaled or nasal, 10 animals per dose, read-out: Antiarrhythmic Activity Mouse ED50. From the text:
^(2) Ventricular arrhythmia produced in mice by chloroform inhalation
10 animals per dose (Lawson, J. W., J. Pharmacol. Exp. Therap., 160, 22

[3] abbreviates: mice, oral, approximate lethal dose for half the animals, read-out: Toxicity ALD50.
Where [4] appears, read: mice, oral, approximate lowest dose where signs of physiologic or neurologic deficit appear, read-out: Toxicity ATD50.

Read-outs that look alike come from different tables or passages of the source.

One may read the ED50 as the dose that gives a 50% effect, or the effect in half of the subjects. As for `COc1ccc(C(=O)Nc2ccccc2CCC2CCCCN2C)cc1` (stereo not drawn) [I, reference compound], the LD50 in data set [1] (setting [3]) was in the range of 50 to 100 mg/kg. Besides, the TD50 in data set [1] (setting [4]) lay in the range of 5 to 10 mg/kg. Also, the ED50 in data set [2] was in the range of 7 to 15 mg/kg.
In data set [1] (po), `COc1ccc(C(=O)Nc2ccccc2CCC2CCCC[N+]2(C)Cc2ccccc2)cc1` (stereo not drawn) [IIb, 2-[2--[2-[(4-Methoxybenzoyl)amino]phenyl]ethyl]-1-methyl-1-(phenylmethyl)piperidinium Bromide Hydrate] came in with an LD50 of more than 1000 mg/kg and a TD50 of 125 to 250 mg/kg. Also, the ED50 in data set [2] is 19 mg/kg.
On to `COc1ccc(C(=O)Nc2ccccc2CCC2CCCC[N+]2(C)C)cc1.[I-]` (stereo not drawn) [IIa, 2-[2-[2-[(4-Methoxybenzoyl)amino]phenyl]ethyl]-1,1-dimethylpiperidinium Iodide], for which the LD50 in data set [1] (setting [3]) was more than 2000 mg/kg. Besides, the TD50 in data set [1] (setting [4]) came out at 250 mg/kg. The ED50 in data set [2] was 30.5 mg/kg.
